molecular target: T1, AXL (fusion protein of amino acids 464-885 of the intracellular domain of human AXL with glutathione transferase) (Homo sapiens, UniProt P30530); assay: Cell-Free Axl Kinase Inhibitory Activity
T1 sequence (P30530 464-885 isoform P30530-2): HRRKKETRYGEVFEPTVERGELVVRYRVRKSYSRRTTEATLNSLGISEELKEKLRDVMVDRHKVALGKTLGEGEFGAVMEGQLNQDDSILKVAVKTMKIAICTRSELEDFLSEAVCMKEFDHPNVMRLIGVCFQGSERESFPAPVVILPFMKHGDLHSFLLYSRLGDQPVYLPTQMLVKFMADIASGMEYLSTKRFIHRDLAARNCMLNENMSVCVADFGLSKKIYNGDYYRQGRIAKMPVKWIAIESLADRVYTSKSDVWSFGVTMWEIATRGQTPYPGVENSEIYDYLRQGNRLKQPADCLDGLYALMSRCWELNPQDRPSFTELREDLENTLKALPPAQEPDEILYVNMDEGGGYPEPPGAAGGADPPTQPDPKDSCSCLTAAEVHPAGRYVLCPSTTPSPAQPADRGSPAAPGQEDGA
Experimental: Next, the test compound was diluted with DMSO, and 1 μl of this diluted solution was added to each well.
Five microliters of this solution were added to each well to initiate a kinase reaction. The plate was incubated at 28° C. for 1.5 hours, and 40 μl of a termination buffer (100 mM HEPES (pH 7.4), 0.015% Brij-35, 40 mM EDTA, 0.1% Coating Reagent 3) was added to each well to terminate the reaction.
The substrate peptide and the phosphorylated peptide in the reaction solution were separated and quantified by EZ Reader II (Caliper Life Sciences).
IC50 was determined from inhibition data for 12 test compound concentrations by nonlinear regression (four-parameter logistic regression) using the following formula.

COc1cc(-c2cnc(N)c(-c3ccc(NC(=O)c4cn(Cc5ccccc5)cc(-c5ccc(F)cc5)c4=O)cc3)c2)ccc1OC[C@H]1COCCO1 [Example 41, N-[4-(2-Amino-5-{4-[(2R)-1,4-dioxan-2-ylmethoxy]-3-methoxyphenyl}pyridin-3-yl)phenyl]-1-benzyl-5-(4-fluorophenyl)-4-oxo-1,4-dihydropyridine-3-carboxamide] and COc1cc(-c2cnc(N)c(-c3ccc(NC(=O)c4cn(CCF)cc(-c5ccc(F)cc5)c4=O)cc3)c2)ccc1OC[C@H]1COCCO1 [Example 43, N-[4-(2-Amino-5-{4-[(2R)-1,4-dioxan-2-ylmethoxy]-3-methoxyphenyl}pyridin-3-yl)phenyl]-1-(2-fluoroethyl)-5-(4-fluorophenyl)-4-oxo-1,4-dihydropyridine-3-carboxamide] fall in the same range of IC50: 1 to 10 nM for the first, 1 to 10 nM for the second.

Cn1cc(-c2cnc(N)c(-c3ccc(NC(=O)c4cn(CC(F)F)cc(-c5ccc(F)cc5)c4=O)cc3)c2)cn1 [Example 49, N-{4-[2-Amino-5-(1-methyl-1H-pyrazol-4-yl)pyridin-3-yl]phenyl}-1-(2,2-difluoroethyl)-5-(4-fluorophenyl)-4-oxo-1,4-dihydropyridine-3-carboxamide] and CCn1cc(C(=O)Nc2ccc(-c3cc(-c4cnn(C)c4)cnc3N)cc2)c(=O)c(-c2ccc(F)cc2)c1 [Example 47, N-{4-[2-Amino-5-(1-methyl-1H-pyrazol-4-yl)pyridin-3-yl]phenyl}-1-ethyl-5-(4-fluorophenyl)-4-oxo-1,4-dihydropyridine-3-carboxamide] fall in the same range of IC50: 1 to 10 nM for the first, 1 to 10 nM for the second.

Compared with COc1ccc(-c2cnc(N)c(-c3ccc(NC(=O)c4cn(Cc5ccc(F)cc5)cc(-c5ccc(F)cc5)c4=O)cc3)c2)cc1OC [Example 11, N-{4-[2-Amino-5-(3,4-dimethoxyphenyl)pyridin-3-yl]phenyl}-1-(4-fluorobenzyl)-5-(4-fluorophenyl)-4-oxo-1,4-dihydropyridine-3-carboxamide], COc1ccc(-c2cnc(N)c(-c3ccc(NC(=O)c4cn(Cc5ccccc5)cc(-c5ccc(F)cc5)c4=O)cc3)c2)cc1OC [Example 10, N-{4-[2-Amino-5-(3,4-dimethoxyphenyl)pyridin-3-yl]phenyl}-1-benzyl-5-(4-fluorophenyl)-4-oxo-1,4-dihydropyridine-3-carboxamide] is higher in IC50: 0.1 to 1 nM for the first, 1 to 10 nM for the second.

First: COc1ncnc(N)c1-c1ccc(NC(=O)c2cn(CC(F)(F)F)cc(-c3ccc(F)cc3)c2=O)cc1 [Example 86, N-[4-(4-Amino-6-methoxypyrimidin-5-yl)phenyl]-5-(4-fluorophenyl)-4-oxo-1-(2,2,2-trifluoroethyl)-1,4-dihydropyridine-3-carboxamide]
Second: COc1ccnc(N)c1-c1ccc(NC(=O)c2cn(CC(F)(F)F)cc(-c3ccc(F)cc3)c2=O)cc1F [Example 85, N-[4-(2-Amino-4-methoxypyridin-3-yl)-3-fluorophenyl]-5-(4-fluorophenyl)-4-oxo-1-(2,2,2-trifluoroethyl)-1,4-dihydropyridine-3-carboxamide]
The IC50 of the first is higher: 1 to 10 nM for the first, 0.1 to 1 nM for the second. The second is the more potent here.

Compared with Nc1ncc(-c2cnn(C[C@H]3COCCO3)c2)cc1-c1ccc(NC(=O)c2cn(CCF)cc(-c3ccc(F)cc3)c2=O)cc1 [Example 65, N-[4-(2-Amino-5-{1-[(2S)-1,4-dioxan-2-ylmethyl]-1H-pyrazol-4-yl}pyridin-3-yl)phenyl]-1-(2-fluoroethyl)-5-(4-fluorophenyl)-4-oxo-1,4-dihydropyridine-3-carboxamide], Cc1nnc(-c2cn(Cc3ccc(F)cc3)cc(C(=O)Nc3ccc(-c4cc(-c5cnn(C[C@H]6COCCO6)c5)cnc4N)cc3)c2=O)o1 [Example 74, N-[4-(2-Amino-5-{1-[(2S)-1,4-dioxan-2-ylmethyl]-1H-pyrazol-4-yl}pyridin-3-yl)phenyl]-1-(4-fluorobenzyl)-5-(5-methyl-1,3,4-oxadiazol-2-yl)-4-oxo-1,4-dihydropyridine-3-carboxamide] is lower in IC50: 1 to 10 nM for the first, 0.1 to 1 nM for the second.

COc1ccc(-c2cnc(N)c(-c3ccc(NC(=O)c4cn(CC(F)(F)F)cc(-c5ccc(C)cc5)c4=O)cc3)c2)cc1OC [Example 24, N-{4-[2-Amino-5-(3,4-dimethoxyphenyl)pyridin-3-yl]phenyl}-5-(4-methylphenyl)-4-oxo-1-(2,2,2-trifluoroethyl)-1,4-dihydropyridine-3-carboxamide] and COc1ccc(-c2cnc(N)c(-c3ccc(NC(=O)c4cn(CC(F)(F)OC)cc(-c5ccc(F)cc5)c4=O)cc3)c2)cc1OC [Example 17, N-{4-[2-Amino-5-(3,4-dimethoxyphenyl)pyridin-3-yl]phenyl}-1-(2,2-difluoro-2-methoxyethyl)-5-(4-fluorophenyl)-4-oxo-1,4-dihydropyridine-3-carboxamide] fall in the same range of IC50: 0.1 to 1 nM for the first, 0.1 to 1 nM for the second.

CN(C)C(=O)c1cn(Cc2ccc(F)cc2)cc(C(=O)Nc2ccc(-c3cc(-c4cnn(C)c4)cnc3N)cc2)c1=O [Example 60, N′-{4-[2-Amino-5-(1-methyl-1H-pyrazol-4-yl)pyridin-3-yl]phenyl}-1-(4-fluorobenzyl)-N,N-dimethyl-4-oxo-1,4-dihydropyridine-3,5-dicarboxamide] and Cc1cn(Cc2ccc(F)cc2)cc(C(=O)Nc2ccc(-c3cc(-c4cnn(C)c4)cnc3N)cc2)c1=O [Example 58, N-{4-[2-Amino-5-(1-methyl-1H-pyrazol-4-yl)pyridin-3-yl]phenyl}-1-(4-fluorobenzyl)-5-methyl-4-oxo-1,4-dihydropyridine-3-carboxamide] fall in the same range of IC50: 1 to 10 nM for the first, 1 to 10 nM for the second.

First: Nc1ncc(-c2cnn(C3CCNCC3)c2)cc1-c1ccc(NC(=O)c2cn(CCF)cc(-c3ccc(F)cc3)c2=O)cc1 [Example 62, N-{4-[2-Amino-5-(1-piperidin-4-yl-1H-pyrazol-4-yl)pyridin-3-yl]phenyl}-1-(2-fluoroethyl)-5-(4-fluorophenyl)-4-oxo-1,4-dihydropyridine-3-carboxamide]
Second: COc1cn(Cc2ccc(F)cc2)cc(C(=O)Nc2ccc(-c3cc(-c4cnn(C)c4)cnc3N)cc2)c1=O [Example 59, N-{4-[2-Amino-5-(1-methyl-1H-pyrazol-4-yl)pyridin-3-yl]phenyl}-1-(4-fluorobenzyl)-5-methoxy-4-oxo-1,4-dihydropyridine-3-carboxamide]
The IC50 of the first is lower: 0.1 to 1 nM for the first, 10 to 20 nM for the second. The first is the more potent here.

Compared with CCn1cc(C(=O)Nc2ccc(-c3cc(-c4ccc(OC[C@H]5COCCO5)c(OC)c4)cnc3N)cc2)c(=O)c(-c2ccccc2)c1 [Example 45, N-[4-(2-Amino-5-{4-[(2R)-1,4-dioxan-2-ylmethoxy]-3-methoxyphenyl}pyridin-3-yl)phenyl]-1-ethyl-4-oxo-5-phenyl-1,4-dihydropyridine-3-carboxamide], COc1cc(-c2cnc(N)c(-c3ccc(NC(=O)c4cn(CC(F)(F)F)cc(-c5ccc(F)cc5)c4=O)cc3)c2)ccc1OC[C@H]1COCCO1 [Example 42, N-[4-(2-Amino-5-{4-[(2R)-1,4-dioxan-2-ylmethoxy]-3-methoxyphenyl}pyridin-3-yl)phenyl]-5-(4-fluorophenyl)-4-oxo-1-(2,2,2-trifluoroethyl)-1,4-dihydropyridine-3-carboxamide] is lower in IC50: 1 to 10 nM for the first, 0.1 to 1 nM for the second. The second is the more potent here.

First: COc1ccc(-c2cnc(N)c(-c3ccc(NC(=O)c4cn(Cc5ccc(F)cc5)cc(C(=O)N5CCCC5)c4=O)cc3)c2)cc1OC [Example 26, N-{4-[2-Amino-5-(3,4-dimethoxyphenyl)pyridin-3-yl]phenyl}-1-(4-fluorobenzyl)-4-oxo-5-(pyrrolidin-1-ylcarbonyl)-1,4-dihydropyridine-3-carboxamide]
Second: COc1ccc(-c2cnc(N)c(-c3ccc(NC(=O)c4cn(C(C)C)cc(-c5ccc(F)cc5)c4=O)cc3)c2)cc1OC [Example 4, N-{4-[2-Amino-5-(3,4-dimethoxyphenyl)pyridin-3-yl]phenyl}-5-(4-fluorophenyl)-4-oxo-1-(propan-2-yl)-1,4-dihydropyridine-3-carboxamide]
The IC50 of the first is lower: 0.1 to 1 nM for the first, 1 to 10 nM for the second.

Compared with COc1ccnc(N)c1-c1ccc(NC(=O)c2cn(CCF)cc(-c3ccc(F)cc3)c2=O)cc1 [Example 83, N-[4-(2-Amino-4-methoxypyridin-3-yl)phenyl]-1-(2-fluoroethyl)-5-(4-fluorophenyl)-4-oxo-1,4-dihydropyridine-3-carboxamide], COc1ccc(-c2cnc(N)c(-c3ccc(NC(=O)c4cn(CC(F)(F)F)cc(-c5ccc(F)cc5)c4=O)cc3F)c2)cc1OC [Example 29, N-{4-[2-Amino-5-(3,4-dimethoxyphenyl)pyridin-3-yl]-3-fluorophenyl}-5-(4-fluorophenyl)-4-oxo-1-(2,2,2-trifluoroethyl)-1,4-dihydropyridine-3-carboxamide] is lower in IC50: 10 to 20 nM for the first, 0.1 to 1 nM for the second. The second is the more potent here.

COc1ccc(-c2cnc(N)c(-c3ccc(NC(=O)c4cn(CC(F)(F)F)cc(-c5ccc(F)cc5)c4=O)cn3)c2)cc1OC [Example 87, N-[2′-Amino-5′-(3,4-dimethoxyphenyl)-2,3′-bipyridin-5-yl]-5-(4-fluorophenyl)-4-oxo-1-(2,2,2-trifluoroethyl)-1,4-dihydropyridine-3-carboxamide] and COc1ccc(-c2cnc(N)c(-c3ccc(NC(=O)c4cn(CC(F)(F)F)cc(-c5ccccc5F)c4=O)cc3)c2)cc1OC [Example 21, N-{4-[2-Amino-5-(3,4-dimethoxyphenyl)pyridin-3-yl]phenyl}-5-(2-fluorophenyl)-4-oxo-1-(2,2,2-trifluoroethyl)-1,4-dihydropyridine-3-carboxamide] fall in the same range of IC50: 1 to 10 nM for the first, 1 to 10 nM for the second.

With Cn1cc(-c2cnc(N)c(-c3ccc(NC(=O)c4cn(Cc5ccc(F)cc5)ccc4=O)cc3)c2)cn1 [Example 56, N-{4-[2-Amino-5-(1-methyl-1H-pyrazol-4-yl)pyridin-3-yl]phenyl}-1-(4-fluorobenzyl)-4-oxo-1,4-dihydropyridine-3-carboxamide] the IC50 was 1 to 10 nM.
